{
  "source": "patent US8367328B2",
  "about": "“Method for synthesizing DNA” (Takara Bio Inc., priority 1998, dated 2013)",
  "key": {"KOD DNA Polymerase": {"biological_target": "T1, KOD DNA Polymerase (Thermococcus kodakarensis, UniProt P77933, DEL407-766/DEL852-1388)", "T1 construct": "purchased TOYOBO CO., LTD", "T1 sequence (P77933 other isoform, or with tags, fused parts or gaps DEL407-766/DEL852-1388)": "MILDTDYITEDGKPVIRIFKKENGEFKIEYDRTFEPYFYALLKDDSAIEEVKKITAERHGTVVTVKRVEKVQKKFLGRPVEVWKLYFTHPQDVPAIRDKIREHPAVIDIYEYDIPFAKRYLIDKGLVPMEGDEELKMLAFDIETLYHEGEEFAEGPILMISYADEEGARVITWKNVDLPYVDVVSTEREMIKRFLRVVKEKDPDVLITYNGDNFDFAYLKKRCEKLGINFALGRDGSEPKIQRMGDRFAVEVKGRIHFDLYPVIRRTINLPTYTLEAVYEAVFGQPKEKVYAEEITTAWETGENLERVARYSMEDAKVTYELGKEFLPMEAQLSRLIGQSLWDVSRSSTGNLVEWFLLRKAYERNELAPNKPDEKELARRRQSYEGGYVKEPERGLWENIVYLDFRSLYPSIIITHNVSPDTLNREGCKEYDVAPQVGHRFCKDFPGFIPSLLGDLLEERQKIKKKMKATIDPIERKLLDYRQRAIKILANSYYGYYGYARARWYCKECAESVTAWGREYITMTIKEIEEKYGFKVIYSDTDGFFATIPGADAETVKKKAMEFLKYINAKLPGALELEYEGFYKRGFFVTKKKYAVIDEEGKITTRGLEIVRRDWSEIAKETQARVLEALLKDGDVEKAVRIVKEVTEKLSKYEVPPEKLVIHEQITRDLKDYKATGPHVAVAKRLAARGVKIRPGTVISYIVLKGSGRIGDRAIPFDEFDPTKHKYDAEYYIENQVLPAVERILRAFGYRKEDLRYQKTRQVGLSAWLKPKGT", "experiment": "PCR with KOD DNA Polymerase (α-type) in the presence of acidic substances", "type": "biochemical, Pyrococcus sp.", "conditions": "10 kb fragment, 100 pg λDNA, 30 cycles 98°C 5 s–68°C 3 min", "experimental": "(1) Using sodium alginate, sodium hyaluronate (manufactured by Seikagaku Kogyo), or κ carrageenan (manufactured by Sigma), the effects of these acidic substances on α-type DNA polymerase were examined. A reaction mixture comprising λDNA as a template, primers λ1 and λ8 as a primer pair, and KOD DNA Polymerase (manufactured by TOYOBO CO., LTD.) as DNA polymerase was prepared, and PCR was carried out. The composition of the reaction mixture is as follows. Composition of Reaction Mixture: KOD DNA Polymerase Buffer I (manufactured by TOYOBO CO., LTD.) 0.2 mM each of dATP, dCTP, dGTP and dTTP, 0.625 U of KOD DNA Polymerase, 100 pg of λDNA, and 5 pmol each of primers λ1 and λ8 (a final volume being 25 μl). Further, 1 μg or 2.5 μg of sodium alginate, 0.1 μg or 0.5 μg of sodium hyaluronate, or 0.1 μg or 0.25 μg of κ carrageenan was respectively added to the above reaction mixture.\nThe reaction in 30 cycles was carried out for each of these reaction mixtures, wherein one cycle of reaction comprises a process consisting of 98° C., 5 seconds—68° C., 3 minutes. Thereafter, 5 μl of the resulting reaction mixture was subjected to electrophoresis on 1% agarose gel containing ethidium bromide in an amount of 0.00005%, whereby an amplified fragment was confirmed.\n(2) The effects on α-type DNA polymerase were also examined in the same manner as in item (1) above for sodium alginate, κ carrageenan, sodium heparan sulfate (manufactured by Sigma), sodium dermatan sulfate (manufactured by Sigma), potassium polyvinyl sulfate (manufactured by nacalaitesque) or sodium polystyrenesulfonate (two kinds: average molecular weights of 5,400 and 35,000, all manufactured by nacalaitesque). A reaction mixture comprising λDNA as a template, primers λ1 and λ8 as a primer pair, and KOD DNA Polymerase as DNA polymerase was prepared, and PCR was carried out. The composition of the reaction mixture is as follows. Composition of Reaction Mixture: KOD DNA Polymerase Buffer II (manufactured by TOYOBO CO., LTD.) 0.2 mM each of dATP, dCTP, dGTP and dTTP, 1.25 U of KOD DNA Polymerase, 100 pg of λDNA, and 10 pmol each of primers λ1 and λ8 (a final volume being 50 μl). Further, 2.5 μg or 5 μg of sodium alginate, 0.25 μg or 0.5 μg of κ carrageenan, or 125 ng, 250 ng or 375 ng of sodium dermatan sulfate, 500 ng of sodium heparan sulfate, 10 ng of potassium polyvinyl sulfate, 2.5 ng or 5 ng of sodium polystyrenesulfonate (average molecular weight: 5,400), or 5 ng of sodium polystyrenesulfonate (average molecular weight: 35,000) was respectively added to the above reaction mixture."}, "[1]": {"biological_target": "T2, TaKaRa Taq DNA Polymerase (Thermus aquaticus, UniProt P19821)", "T2 construct": "purchased Takara Shuzo Co., Ltd", "T2 sequence (P19821 whole entry, the tested form may be a part)": "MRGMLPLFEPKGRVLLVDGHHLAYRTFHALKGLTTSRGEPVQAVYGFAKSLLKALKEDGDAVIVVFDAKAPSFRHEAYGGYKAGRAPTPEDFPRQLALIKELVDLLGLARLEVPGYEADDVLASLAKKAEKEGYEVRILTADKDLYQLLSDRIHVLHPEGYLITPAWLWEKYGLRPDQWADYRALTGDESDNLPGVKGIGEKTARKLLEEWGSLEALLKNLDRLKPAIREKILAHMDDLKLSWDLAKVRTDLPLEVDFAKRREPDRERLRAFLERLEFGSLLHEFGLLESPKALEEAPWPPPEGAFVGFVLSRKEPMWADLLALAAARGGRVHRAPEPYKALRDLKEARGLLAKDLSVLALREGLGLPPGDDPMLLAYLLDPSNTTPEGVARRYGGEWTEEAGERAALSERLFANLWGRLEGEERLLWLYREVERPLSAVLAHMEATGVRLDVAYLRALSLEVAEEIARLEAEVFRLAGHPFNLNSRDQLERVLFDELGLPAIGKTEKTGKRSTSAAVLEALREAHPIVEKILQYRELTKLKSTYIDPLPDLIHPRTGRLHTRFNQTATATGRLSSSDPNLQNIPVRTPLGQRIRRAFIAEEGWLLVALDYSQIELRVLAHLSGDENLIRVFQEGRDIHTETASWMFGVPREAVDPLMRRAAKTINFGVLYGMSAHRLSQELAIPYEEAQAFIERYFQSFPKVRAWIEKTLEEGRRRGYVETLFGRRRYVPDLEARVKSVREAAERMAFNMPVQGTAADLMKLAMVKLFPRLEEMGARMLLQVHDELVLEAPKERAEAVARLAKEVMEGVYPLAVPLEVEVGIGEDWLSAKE", "experiment": "PCR with TaKaRa Taq DNA Polymerase in the presence of acidic substances", "type": "biochemical", "conditions": "1 kb fragment; 100 pg λDNA, primers λ1/λ3, 30 cycles 98°C 10 s–68°C 1 min, 50 μl; amount added 1 μg", "experimental": "Using the sulfated-fucose-containing polysaccharide-F obtained in Example 6 described above or sodium alginate, the effects of these acidic substances imparted on TaKaRa Taq DNA Polymerase (manufactured by Takara Shuzo Co., Ltd.) were examined. In this example, PCR was carried out in normal mode by using TaKaRa PCR Thermal Cycler Personal.\nA reaction mixture comprising λDNA as a template, primers λ1 and λ3 as a primer pair, and TaKaRa Taq DNA Polymerase as DNA polymerase was prepared, and PCR was carried out. The composition of the reaction mixture is as follows.\nTaKaRa Taq DNA Polymerase buffer, 0.2 mM each of dATP, dCTP, dGTP and dTTP, 1.25 U of TaKaRa Taq DNA Polymerase, 100 pg of λDNA, and 10 pmol each of primers λ1 and λ3 (a final volume being 50 μl). Further, 0.1 ng or 0.25 ng each of the sulfated-fucose-containing polysaccharide-F or 1 μg of sodium alginate was respectively added to the above reaction mixture.\nThe reaction was carried out in 30 cycles, wherein one cycle of reaction comprises a process consisting of 98° C., 10 seconds—68° C., 1 minute. After the termination of the reaction, 5 μl of the resulting reaction mixture was subjected to electrophoresis on 1% agarose gel containing ethidium bromide in an amount of 0.00005%, whereby an amplified fragment was confirmed."}},
  "data": [
    {"substance": "sodium alginate", "values": [
      {"measurement": "Amplification Results", "setting": "KOD DNA Polymerase; Buffer I, 0.625 U KOD, primers λ1/λ8, 25 μl, amount added 1 μg", "result": "++ (Intensive amplification being observed)"},
      {"measurement": "Amplification Results", "setting": "KOD DNA Polymerase; Buffer I, 0.625 U KOD, primers λ1/λ8, 25 μl, amount added 2.5 μg", "result": "++ (Intensive amplification being observed)"},
      {"measurement": "Amplification Results", "setting": "KOD DNA Polymerase; Buffer II, 1.25 U KOD, primers λ1/λ8, 50 μl, amount added 2.5 μg", "result": "++ (Intensive amplification being observed)"},
      {"measurement": "Amplification Results", "setting": "KOD DNA Polymerase; Buffer II, 1.25 U KOD, primers λ1/λ8, 50 μl, amount added 5 μg", "result": "++ (Intensive amplification being observed)"},
      {"measurement": "Amplification Results", "setting": "[1]", "result": "+ (Amplification being observed)"}
    ]}
  ]
}
